Source: patent US20250303006A1, “BIOCOMPATIBLE ANTISEPTIC COMPOSITION CONTAINING 9-HYDROXYCALABAXANTHONE AND/OR RELATED XANTHONES” (UNIVERSITAT DE LES ILLES BALEARS, priority 2022, published 2025)

Test system: bacterial plaque biofilm
Experiment: In vitro bacterial plaque biofilm formation from pooled human saliva
Format: cell-based
Settings: 0.05% HCX solution, slides immersed 2 min on days 2 and 3; equal to 0.2% chlorhexidine
Description: This is an in vitro study using pooled human saliva as a test substrate to compare the ability of 9-hydroxycalabaxanthone (HCX) versus chlorhexidine (CHX) and control to prevent or reduce plaque biofilm buildup.
Human saliva from different donors was collected and pooled. 15 ml of the pooled saliva supplemented with 0.1% sucrose was pipetted into sterile 40 ml containers and then a glass microscope slide was submerged below 2 cm of saliva in each container and incubated at 37° C. for bacterial biofilm formation. Twice a day the slide was immersed in TSB culture medium. On days 2 and 3, the biofilm was treated with different groups: (1) a solution containing 0.05% 9-hydroxycalabaxanthone (HCX) (n=6), (2) a solution containing 0.2% chlorhexidine (CHX) (n=6), and a solution containing water (C−) (n=6), by immersing the slides for 2 min in the test of the assigned product. […] The removed biofilms were subjected to sonication using three 15 s pulses with a power of 7 W. The homogenized bacterial suspension was used to determine the bacterial viability both by quantification of colony-forming units (CFU) per mL and by LIVE/DEAD assay.
For the Bacterial viability assay, an aliquot (0.1 mL) of the homogenized bacterial suspension was serially diluted and plated on TSB agar. The plates were incubated in 5% CO2 at 37° C. for 48 h, and then the number of CFU/mL was determined. […]

With COc1c(O)cc2oc3cc4c(c(O)c3c(=O)c2c1CC=C(C)C)C=CC(C)(C)O4 [HCX, 9-hydroxycalabaxanthone] the “plaque biofilm bacteria formation (live/dead ratio, CFU/mL)” value was “reduced plaque biofilm bacteria formation”.
